Data: the supplement of paper PMC11451515

Test system: SEM cells
Experiment: cell viability relative to DMSO control; higher = less cytotoxic
Settings: 48 h
Outline: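 Library compounds in DMSO were pin-dosed in an 11-point threefold series (47 μM to 0.79 nM) onto leukemia cells in 1536-well plates (5 μl). Plates held 500 cells/well of NOMO1 or SEM or 1000 cells/well of P12-Ichikawa, each adapted for at least four passages in each medium. Luminescence was read with CellTiter-Glo One after 48 h at 37°C. Viability means the per-plate percentage relative to DMSO wells, using cell-free wells as background.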

[1] = HPLM + 10% dialyzed FBS, 0.000781 µM
[2] = HPLM + 10% dialyzed FBS, 0.00234 µM
[3] = HPLM + 10% dialyzed FBS, 0.00702 µM
[4] = HPLM + 10% dialyzed FBS, 0.0211 µM
[5] = HPLM + 10% dialyzed FBS, 0.0632 µM
[6] = HPLM + 10% dialyzed FBS, 0.19 µM
[7] = HPLM + 10% dialyzed FBS, 0.569 µM
[8] = HPLM + 10% dialyzed FBS, 1.71 µM
[9] = HPLM + 10% dialyzed FBS, 5.12 µM
[10] = HPLM + 10% dialyzed FBS, 15.4 µM
[11] = HPLM + 10% dialyzed FBS, 46.1 µM
[12] = RPMI 5 mM glucose + 10% FBS, 0.000781 µM
[13] = RPMI 5 mM glucose + 10% FBS, 0.00234 µM
[14] = RPMI 5 mM glucose + 10% FBS, 0.00702 µM
[15] = RPMI 5 mM glucose + 10% FBS, 0.0211 µM
[16] = RPMI 5 mM glucose + 10% FBS, 0.0632 µM
[17] = RPMI 5 mM glucose + 10% FBS, 0.19 µM
[18] = RPMI 5 mM glucose + 10% FBS, 0.569 µM
[19] = RPMI 5 mM glucose + 10% FBS, 1.71 µM
[20] = RPMI 5 mM glucose + 10% FBS, 5.12 µM
[21] = RPMI 5 mM glucose + 10% FBS, 15.4 µM
[22] = RPMI 5 mM glucose + 10% FBS, 46.1 µM
[23] = RPMI 5 mM glucose + 10% dialyzed FBS, 0.000781 µM
[24] = RPMI 5 mM glucose + 10% dialyzed FBS, 0.00234 µM
[25] = RPMI 5 mM glucose + 10% dialyzed FBS, 0.00702 µM
[26] = RPMI 5 mM glucose + 10% dialyzed FBS, 0.0211 µM
[27] = RPMI 5 mM glucose + 10% dialyzed FBS, 0.0632 µM
[28] = RPMI 5 mM glucose + 10% dialyzed FBS, 0.19 µM
[29] = RPMI 5 mM glucose + 10% dialyzed FBS, 0.569 µM
[30] = RPMI 5 mM glucose + 10% dialyzed FBS, 1.71 µM
[31] = RPMI 5 mM glucose + 10% dialyzed FBS, 5.12 µM
[32] = RPMI 5 mM glucose + 10% dialyzed FBS, 15.4 µM
[33] = RPMI 5 mM glucose + 10% dialyzed FBS, 46.1 µM

| SMILES | cell viability [1] [%] | cell viability [2] [%] | cell viability [3] [%] | cell viability [4] [%] | cell viability [5] [%] | cell viability [6] [%] | cell viability [7] [%] | cell viability [8] [%] | cell viability [9] [%] | cell viability [10] [%] | cell viability [11] [%] | cell viability [12] [%] | cell viability [13] [%] | cell viability [14] [%] | cell viability [15] [%] | cell viability [16] [%] | cell viability [17] [%] | cell viability [18] [%] | cell viability [19] [%] | cell viability [20] [%] | cell viability [21] [%] | cell viability [22] [%] | cell viability [23] [%] | cell viability [24] [%] | cell viability [25] [%] | cell viability [26] [%] | cell viability [27] [%] | cell viability [28] [%] | cell viability [29] [%] | cell viability [30] [%] | cell viability [31] [%] | cell viability [32] [%] | cell viability [33] [%] |
| --- | --- | --- | --- | --- | --- | --- | --- | --- | --- | --- | --- | --- | --- | --- | --- | --- | --- | --- | --- | --- | --- | --- | --- | --- | --- | --- | --- | --- | --- | --- | --- | --- | --- |
| COC(=O)\C1=C\CCN(C)C1 | 113 | 109 | 106 | 113 | 102 | 117 | 103 | 105 | 109 | 114 | 106 | 107 | 103 | 106 | 109 | 104 | 111 | 111 | 110 | 98.8 | 99.8 | 110 | 101 | 111 | 109 | 115 | 127 | 106 | 114 | 124 | 110 | 106 | 105 |
| CCN1CCN(C(=O)Cc2ccc(Nc3ncc(F)c(Nc4ccc(C(=O)Nc5ccccc5Cl)cc4)n3)cc2)CC1 | 79.1 | 90.8 | 97.2 | 111 | 109 | 107 | 108 | 83.1 | 61.2 | 33.6 | 27.6 | 81.8 | 108 | 103 | 108 | 118 | 105 | 101 | 82.4 | 58.8 | 11.5 | 8.62 | 80.4 | 89.3 | 111 | 97.6 | 116 | 118 | 101 | 81.6 | 54.4 | 19.1 | 14.6 |
| OC[C@H]1O[C@@H](Oc2cc(O)cc(/C=C/c3ccc(O)cc3)c2)[C@H](O)[C@@H](O)[C@@H]1O | 71.9 | 89.5 | 97.3 | 105 | 101 | 108 | 108 | 108 | 95.4 | 116 | 115 | 79.3 | 102 | 89.7 | 104 | 97.4 | 110 | 85.7 | 102 | 117 | 119 | 104 | 86.2 | 104 | 94 | 102 | 93.2 | 104 | 102 | 119 | 114 | 117 | 114 |
| CCOc1cc(CC(=O)N[C@@H](CC(C)C)c2ccccc2N2CCCCC2)ccc1C(=O)O | 83.9 | 104 | 121 | 106 | 116 | 109 | 122 | 117 | 132 | 125 | 119 | 103 | 110 | 109 | 109 | 106 | 108 | 118 | 134 | 127 | 129 | 123 | 105 | 113 | 123 | 127 | 109 | 114 | 119 | 137 | 130 | 128 | 134 |
| COc1cc(C)c(Sc2cnc(NC(=O)c3ccc(CNC(C)C(C)C)cc3)s2)cc1C(=O)N1CCN(C(C)=O)CC1 (stereo unspecified) | 119 | 134 | 124 | 118 | 96.6 | 105 | 96.2 | 104 | 81.7 | 42 | 108 | 115 | 135 | 111 | 129 | 109 | 112 | 110 | 112 | 73.9 | 43.4 | 121 | 124 | 141 | 116 | 118 | 121 | 118 | 109 | 102 | 79.9 | 49.7 | 132 |
| CC(C)(C)[C@H](NC(=O)c1ccc(N)c(Cl)c1)C(=O)N1CCC[C@H]1C(=O)N[C@H](C#N)CC(=O)O | 99.5 | 105 | 109 | 129 | 127 | 125 | 113 | 113 | 123 | 140 | 130 | 107 | 107 | 129 | 118 | 118 | 124 | 115 | 120 | 100 | 134 | 110 | 116 | 101 | 117 | 111 | 117 | 116 | 117 | 118 | 117 | 123 | 125 |
| Nc1nc(Cl)nc2c1ncn2[C@@H]1O[C@H](CO)[C@@H](O)[C@@H]1F | 14.5 | 17 | 16.4 | 15.7 | 18 | 16.5 | 15.1 | 16.1 | 10.2 | 8.98 | 4.93 | 15.3 | 20 | 18.8 | 16.8 | 14.3 | 10.8 | 9.77 | 9.03 | 5.46 | 3.69 | 2.88 | 12.6 | 14.1 | 15.2 | 16.5 | 14 | 11.9 | 10.8 | 10.3 | 8.13 | 8.34 | 4.01 |
